Values of other authors, collected in patent US5882682A (Merck & Co., Inc., priority 1997, dated 1999).
Converted amounts (≈) assume the structure as drawn.

Key:
[1] = humans

Row | aqueous solubility (in words) | Compound | aqueous solubility (water) [µg/mL] | reduction of serum cholesterol levels [1]
1 | moderately soluble | CC(=O)Nc1ccc(O)cc1 [acetominophren, acetaminophen] | – | –
2 | poorly aqueous soluble | COc1ccc2c(c1)c(CC(=O)O)c(C)n2C(=O)c1ccc(Cl)cc1 [indomethacin] | – | –
3 | – | CC[C@H](C)C(=O)O[C@H]1C[C@@H](C)C=C2C=C[C@H](C)[C@H](CC[C@@H]3C[C@@H](O)CC(=O)O3)[C@H]21 [lovastatin] | 0.44 (≈ 1.09 µM) | highly effective
4 | – | CCC(C)(C)C(=O)O[C@H]1C[C@@H](C)C=C2C=C[C@H](C)[C@H](CC[C@@H]3C[C@@H](O)CC(=O)O3)[C@H]21 [simvastatin] | – | highly effective
